Legend:
Assay type in all cases: cell-based
[1] = tested on: M. furfur; assay: Antifungal activity, log reduction by plate count; conditions: M. furfur ATCC 14521; contact time 24 hr; 10 mg sample in 1000 μL inoculum, 10^5 cells/ml; 32° C.
Protocol: The samples as given in Table-1 were subjected to their anti fungal efficacy on M. furfur as described hereinafter.
Plate was at 30° C. for 72 hrs. Approximately 72 hrs prior to testing, the plate culture was inoculated onto the surface of another sterile Modified Dixon agar plate and incubated at 30° C. for approximately 72 hrs. From second subculture, the optical density of culture is adjusted at 620 nm to give cell strength of 10^7 cfu/ml. The culture was further diluted by 100 times to achieve 10^5 cfu/ml in Pityrosporum broth.
10 mg of each sample was thoroughly mixed by vortex and weighed into a sterile 1.5 ml Eppendorf tube. 1000 μL of M. furfur inocula were added to the above tubes and a blank sterile 1.5 ml Eppendorf tube (no particles as control), respectively so that the load in each tube is 10^5 cells/ml.
All the samples were shaken at 120 RPM in a shaker incubator at 32° C. After 24 hours incubation, 10 μL of the samples were withdrawn from the respective 1.5 ml Eppendorf tubes and diluted with 990 μL of Pityrosporum broth. This represents a 10^2 dilution. Serial dilution was performed from the above 24 hours inocula and plated 100 μL of dilution onto modified Dixon plate. Plate dilution 10^2, 10^3, 10^4 and […]. All the plates were kept for incubation at 32° C. for 24-72 hrs. Plate count for all the plates were done.

[2] = tested on: Staphylococcus aureus; assay: Antibacterial efficacy, log reduction by plate count; conditions: contact time 60 seconds, 40 mg sample in 100 ml water, pH 10, room temperature
Protocol: 40 mg of the powdered sample was dispersed in 100 ml deionised sterile water. The pH was maintained at 10 using NaOH. 8 ml of the solution was taken, to it 1 ml cell (1 mL bacterial suspension of Staphylococcus aureus (stock 10^9 cells/MI) and 1 ml of distilled water was added. The incubation was done at room temperature for 30 and 60 seconds respectively. 1 ml of the above reaction mixtures was taken and added to 9 ml of Dey-Engley Neutralizing Broth. This was further incubated for 5 minutes. This represents 10^−1 dilution. Serial dilutions were performed for plate count.

[3] = tested on: M. furfur ATCC 14521; assay: Disc diffusion technique (agar cup method), zone of inhibition; conditions: test conc. 0.5 %, Modified Dixon agar, 72 hrs at 32 C, disc diameter 10 mm
Protocol: The plates are swabbed with 100 μl of test inoculum containing approximately 10^6 cells/ml. The swabbed plates are allowed to dry for 5 mins so to absorb excess of remaining culture fluid. The discs impregnated with different test solution were placed on the inoculated agar surface. Each plate was labelled with different test solution and their respective concentration used. The agar plates are incubated for 72 hrs at 32° C. Zones of inhibition are measured using calibrated mm ruler.
Media used: Modified Dixon agar
Incubation conditions: 72 hrs at 32 C
Diameter of disc used: 10 mm (Himedia make)

Molecule	Log reduction [1]	Log reduction [2]	zone of inhibition (mm) [3]
NC(=O)c1ccccn1.[Zn] [D, Zinc picolinamide]	1.92		
Zinc niacinamide	1.96		
Zinc isoniacinamide [B]	1.98	0.9	0 mm

From US20200360249A1, “AN ANTIMICROBIAL COMPOSITION” (Conopco, Inc., d/b/a UNILEVER, priority 2017, published 2020)
